Reference: patent publication US10426772B2, “Use of ergot alkaloids as an anthelmintic agent” (priority 2016, dated 2019)

Tested on: S. mansoni
Assay: Curative efficacy against schistosome infection in mice
Assay type: in vivo, Schistosoma mansoni
Procedure: Assays testing the curative efficacy of compounds against schistosome infection were performed on mice 6 weeks after exposure to cerceria. Drugs were dosed as follows. Ergotamine (95 mg/kg) was solubilized in 50 μL DMSO and diluted in 200 μL trappsol-saline and delivered by intraperitoneal injection twice a day for one week. Praziquantel (50 mg/kg) was similarly solubilized and injected intraperitoneally once a day for one week. The negative control cohort was given twice daily injections of DMSO (50 μL) added to 200 μL trappsol-saline solution. Mice were weighed and euthanized at 49 days post infection. Worms were harvested and counted as in the hepatic shift assay. Spleen and livers were weighed, and a segment of intestine was excised from the most distal region of the rectum to 10 cm above the cecum. The small and large intestines were separated by cutting immediately above and below the cecum. Each was cut lengthwise to expose the lumen and thoroughly washed in NaCl (1.2%) to remove excrement. Intestines were laid flat with the intestinal mucosa facing upwards and clamped between two glass plates to allow visual inspection of eggs using a stereo microscope.
Mice were injected with vehicle control (dmso), the current frontline anthelmintic (praziquantel) or ergotamine twice daily for one week at starting 42 days post infection.
All animals were sacrificed 49 days post infection, and worms were harvested by dissection of the mesenteric vasculature, portal vein and liver. […] Schistosomes lay large numbers of eggs within the host mesenteric system, and these progress through stages of development over approximately 5 days which can be scored looking at samples of the intestinal mucosa (Pellegrino et al., 1965). Therefore, it is possible to visually determine whether drug treatment has arrested parasite egg laying by observing a lack of developing eggs. Sections of both the large and small intestines were examined and eggs were manually counted and scored according to developmental stage (representative stages of embryo development shown in FIG. 20H-I, top).

[1] = infected mice, ergotamine 95 mg/kg i.p. twice a day, one week

Structure (SMILES): CN1C[C@H](C(=O)N[C@]2(C)O[C@@]3(O)[C@@H]4CCCN4C(=O)[C@H](Cc4ccccc4)N3C2=O)C=C2c3cccc4[nH]cc(c34)C[C@H]21 [ergotamine]
- increase of liver relative to uninfected littermates [1]: 15±34%
- increase of spleen relative to uninfected littermates [1]: 151±80%
- reduction of worm burden relative to controls (mice, ergotamine 95 mg/kg i.p. twice a day for one week from 42 days post infection, sacrificed day 49): 65±10%
- decrease in intestinal egg counts (mice, ergotamine 95 mg/kg twice a day, praziquantel 50 mg/kg once a day, i.p., one week, versus vehicle control): 96%
